Reference: US20240180880A1, “METHODS OF USING EHMT2 INHIBITORS IN TREATING OR PREVENTING BLOOD DISORDERS” (Epizyme, Inc., priority 2017, published 2024)
Where two headings read alike, the source gives them in different places.

Tested on: 284 cell lines
Assay: cells
Settings: Homo sapiens
Procedure: A screen of 284 cell lines to assess the antiproliferative effect of EHMT2 inhibition was conducted by treating cell lines in 384-well format with a half-log step dilutions of Compound 205 over 10 concentrations with a maximum concentration of 0.1% v/v DMSO. Cells were plated on Day 0 and treated with compound on Day 1. Culture medium was replaced on day 7 and cells redosed. After 10-day incubation, cells were fixed and stained with nuclear dye. Automated fluorescence microscopy was carried out using a Molecular Devices ImageXpress Micro XL high-content imager, and images were collected with a 4× objective. 16-bit TIFF images were acquired and analyzed with MetaXpress 5.1.0.41 software. Cell proliferation was measured by the fluorescence intensity of the incorporated nuclear dye. Cell count IC50 is the test compound concentration at 50% of maximal response of the untreated control.

Q: Which IC50 (NCI-H508, read-out: Cell Count IC50, NCI-H508, Colon) does the source give for `CNc1cc(C)nc(Nc2ccc(OC)c(OCCCN3CCCC3)c2)n1` [Compound 205] here?
A: Its IC50 is > 10 µM.

Q: What about the IC50 (NCI-H520, read-out: Cell Count IC50, NCI-H520, Lung, NSCLC) of the same compound?
A: Its IC50 is > 10 µM.

Q: And the IC50 (NCI-H596, read-out: Cell Count IC50, NCI-H596, Lung, NSCLC)?
A: Its IC50 is > 10 µM.

Q: And the IC50 (NCI-H661, read-out: Cell Count IC50, NCI-H661, Lung, NSCLC)?
A: Its IC50 is 0.1 to 1 µM.

Q: What about the IC50 (NCI-H747, read-out: Cell Count IC50, NCI-H747, Colon) of the same compound?
A: The IC50 was 1 to 10 µM.

Q: What about the IC50 (NTERA-2-cl-D1, read-out: Cell Count IC50, NTERA-2 cl.D1, Testis) of the same compound?
A: The IC50 was 1 to 10 µM.

Q: What about the IC50 (OE19, read-out: Cell Count IC50, OE19, Head and Neck) of the same compound?
A: The IC50 was > 10 µM.

Q: And the IC50 (OE33, read-out: Cell Count IC50, OE33, Head and Neck)?
A: Its IC50 is > 10 µM.

Q: What about the IC50 (OVCAR-3, read-out: Cell Count IC50, OVCAR3, Female GU, Ovary) of the same compound?
A: The IC50 was > 10 µM.

Q: What about the IC50 (PANC-1, read-out: Cell Count IC50, PANC-1, Pancreas) of the same compound?
A: Its IC50 is 1 to 10 µM.

Q: And the IC50 (PFSK-1, read-out: Cell Count IC50, PFSK-1, Central Nervous System, Glioma)?
A: Its IC50 is > 10 µM.

Q: And the IC50 (PSN1, read-out: Cell Count IC50, PSN-1, Pancreas)?
A: The IC50 was 1 to 10 µM.

Q: And the IC50 (RKOE6, read-out: Cell Count IC50, RKOE6, Colon)?
A: The IC50 was 1 to 10 µM.

Q: And the IC50 (RL95-2, read-out: Cell Count IC50, RL95-2, Female GU, Uterus)?
A: Its IC50 is > 10 µM.

Q: What about the IC50 (RPMI-6666, read-out: Cell Count IC50, RPMI 6666, Hematopoietic, Lymphoma) of the same compound?
A: Its IC50 is 0.1 to 1 µM.

Q: What about the IC50 (RPMI-7951, read-out: Cell Count IC50, RPMI-7951, Skin, Melanoma) of the same compound?
A: Its IC50 is 1 to 10 µM.

Q: And the IC50 (RPMI-8226, read-out: Cell Count IC50, RPMI 8226, Hematopoietic, Myeloma)?
A: Its IC50 is 1 to 10 µM.

Q: What about the IC50 (RS4-11, read-out: Cell Count IC50, RS4;11, Hematopoietic, Leukemia) of the same compound?
A: Its IC50 is 1 to 10 µM.

Q: What about the IC50 (Raji, read-out: Cell Count IC50, Raji, Hematopoietic, Lymphoma) of the same compound?
A: Its IC50 is > 10 µM.

Q: And the IC50 (Ramos, read-out: Cell Count IC50, Ramos (RA 1), Hematopoietic, Lymphoma)?
A: Its IC50 is 1 to 10 µM.

Q: And the IC50 (SAOS-2, read-out: Cell Count IC50, SaOS2, Bone, Osteosarcoma)?
A: The IC50 was 0.1 to 1 µM.

Q: What about the IC50 (SCC-4, read-out: Cell Count IC50, SCC-4, Head and Neck) of the same compound?
A: Its IC50 is > 10 µM.

Q: What about the IC50 (SCC-9, read-out: Cell Count IC50, SCC-9, Head and Neck) of the same compound?
A: The IC50 was < 0.01 µM.

Q: And the IC50 (SCC-25, read-out: Cell Count IC50, SCC-25, Head and Neck)?
A: Its IC50 is < 0.01 µM.

Q: And the IC50 (SCaBER, read-out: Cell Count IC50, SCaBER, Bladder)?
A: Its IC50 is 1 to 10 µM.

Q: And the IC50 (SHP77, read-out: Cell Count IC50, SHP-77, Lung, SCLC)?
A: Its IC50 is > 10 µM.

Q: And the IC50 (SJRH30, read-out: Cell Count IC50, SJRH30, Soft & Connective Tissue, Sarcoma)?
A: Its IC50 is 1 to 10 µM.

Q: And the IC50 (SJSA-1, read-out: Cell Count IC50, SJSA1, Bone, Osteosarcoma)?
A: The IC50 was 1 to 10 µM.

Q: What about the IC50 (SK-BR-3, read-out: Cell Count IC50, SK-BR-3, Breast) of the same compound?
A: Its IC50 is 1 to 10 µM.

Q: And the IC50 (SK-LMS-1, read-out: Cell Count IC50, SK-LMS-1, Soft & Connective Tissue, Sarcoma)?
A: The IC50 was > 10 µM.

Q: And the IC50 (SK-MEL3, read-out: Cell Count IC50, SK-MEL-3, Skin, Melanoma)?
A: Its IC50 is 1 to 10 µM.

Q: And the IC50 (SK-MEL-1, read-out: Cell Count IC50, SK-MEL-1, Skin, Melanoma)?
A: The IC50 was 1 to 10 µM.

Q: And the IC50 (SK-MEL-28, read-out: Cell Count IC50, SK-MEL-28, Skin, Melanoma)?
A: Its IC50 is 1 to 10 µM.

Q: What about the IC50 (SK-MES-1, read-out: Cell Count IC50, SKMES1, Lung, NSCLC) of the same compound?
A: The IC50 was 1 to 10 µM.

Q: And the IC50 (SK-N-AS, read-out: Cell Count IC50, SK-N-AS, Central Nervous System, Neuroblastoma)?
A: Its IC50 is 1 to 10 µM.

Q: And the IC50 (SK-N-FI, read-out: Cell Count IC50, SK-N-FI, Central Nervous System, Neuroblastoma)?
A: The IC50 was > 10 µM.

Q: And the IC50 (SK-NEP-1, read-out: Cell Count IC50, SK-NEP-1, Kidney)?
A: The IC50 was > 10 µM.

Q: What about the IC50 (SK-OV-3, read-out: Cell Count IC50, SKOV3, Female GU, Ovary) of the same compound?
A: The IC50 was > 10 µM.

Q: And the IC50 (SK-UT-1, read-out: Cell Count IC50, SK-UT-1, Soft & Connective Tissue, Sarcoma)?
A: Its IC50 is > 10 µM.

Q: What about the IC50 (SNB-19, read-out: Cell Count IC50, SNB-19, Central Nervous System, Glioma) of the same compound?
A: Its IC50 is 1 to 10 µM.

Q: And the IC50 (SNU1, read-out: Cell Count IC50, SNU-1, Stomach)?
A: Its IC50 is > 10 µM.

Q: What about the IC50 (SNU-5, read-out: Cell Count IC50, SNU-5, Stomach) of the same compound?
A: The IC50 was 1 to 10 µM.

Q: And the IC50 (SNU-16, read-out: Cell Count IC50, SNU-16, Stomach)?
A: Its IC50 is 1 to 10 µM.

Q: And the IC50 (SNU-423, read-out: Cell Count IC50, SNU-423, Liver)?
A: Its IC50 is 1 to 10 µM.

Q: What about the IC50 (SNU-C2B, read-out: Cell Count IC50, SNU-C2B, Colon) of the same compound?
A: The IC50 was 1 to 10 µM.

Q: What about the IC50 (ST486, read-out: Cell Count IC50, ST486, Hematopoietic, Lymphoma) of the same compound?
A: Its IC50 is 1 to 10 µM.

Q: What about the IC50 (SU-DHL10, read-out: Cell Count IC50, SU-DHL-10, Hematopoietic, Lymphoma) of the same compound?
A: The IC50 was 1 to 10 µM.

Q: What about the IC50 (SU-DHL-4, read-out: Cell Count IC50, SU-DHL-4, Hematopoietic, Lymphoma) of the same compound?
A: Its IC50 is 0.1 to 1 µM.

Q: And the IC50 (SU-DHL-8, read-out: Cell Count IC50, SU-DHL-8, Hematopoietic, Lymphoma)?
A: The IC50 was 1 to 10 µM.

Q: And the IC50 (SU.86.86, read-out: Cell Count IC50, SU.86.86, Pancreas)?
A: Its IC50 is > 10 µM.

Q: And the IC50 (SUP-T1, read-out: Cell Count IC50, SUP-T1, Hematopoietic, Lymphoma)?
A: Its IC50 is 1 to 10 µM.

Q: What about the IC50 (SW13, read-out: Cell Count IC50, SW-13, Endocrine, Adrenal gland) of the same compound?
A: Its IC50 is > 10 µM.

Q: And the IC50 (SW48, read-out: Cell Count IC50, SW48, Colon)?
A: The IC50 was 1 to 10 µM.

Q: What about the IC50 (SW480, read-out: Cell Count IC50, SW480, Colon) of the same compound?
A: Its IC50 is 1 to 10 µM.

Q: And the IC50 (SW684, read-out: Cell Count IC50, SW684, Soft & Connective Tissue, Sarcoma)?
A: Its IC50 is 0.1 to 1 µM.

Q: And the IC50 (SW837, read-out: Cell Count IC50, SW837, Colon)?
A: The IC50 was 1 to 10 µM.

Q: And the IC50 (SW872, read-out: Cell Count IC50, SW872, Soft & Connective Tissue, Sarcoma)?
A: The IC50 was 1 to 10 µM.

Q: And the IC50 (SW900, read-out: Cell Count IC50, SW900, Lung, SCLC)?
A: Its IC50 is 1 to 10 µM.

Q: What about the IC50 (SW948, read-out: Cell Count IC50, SW948, Colon) of the same compound?
A: The IC50 was > 10 µM.

Q: And the IC50 (SW 954, read-out: Cell Count IC50, SW954, Female GU, Vulva)?
A: The IC50 was > 10 µM.

Q: And the IC50 (SW 962, read-out: Cell Count IC50, SW962, Female GU, Vulva)?
A: The IC50 was > 10 µM.

Q: And the IC50 (SW982, read-out: Cell Count IC50, SW982, Soft & Connective Tissue, Sarcoma)?
A: The IC50 was > 10 µM.

Q: What about the IC50 (SW1088, read-out: Cell Count IC50, SW1088, Central Nervous System, Glioma) of the same compound?
A: The IC50 was 1 to 10 µM.

Q: What about the IC50 (SW1353, read-out: Cell Count IC50, SW1353, Bone, Osteosarcoma) of the same compound?
A: Its IC50 is > 10 µM.

Q: What about the IC50 (SW1417, read-out: Cell Count IC50, SW1417, Colon) of the same compound?
A: The IC50 was 1 to 10 µM.

Q: And the IC50 (SW1463, read-out: Cell Count IC50, SW1463, Colon)?
A: The IC50 was 0.1 to 1 µM.

Q: And the IC50 (SW1783, read-out: Cell Count IC50, SW1783, Central Nervous System, Glioma)?
A: The IC50 was 1 to 10 µM.

Q: What about the IC50 (SW-403, read-out: Cell Count IC50, SW403, Colon) of the same compound?
A: The IC50 was 1 to 10 µM.

Q: What about the IC50 (SW-620, read-out: Cell Count IC50, SW620, Colon) of the same compound?
A: The IC50 was 1 to 10 µM.

Q: And the IC50 (SiHa, read-out: Cell Count IC50, SiHa, Female GU, Cervix)?
A: Its IC50 is 1 to 10 µM.

Q: And the IC50 (T47D, read-out: Cell Count IC50, T47D, Breast)?
A: The IC50 was > 10 µM.
